Consider two molecules from PMC8648123, “An atypical EhGEF regulates phagocytosis in Entamoeba histolytica through EhRho1” (PLoS Pathogens, 2021).

One assay addresses T1, EhGEF (Entamoeba histolytica, UniProt C4LYE4).
T1 construct: gene EHI_008090; recombinant protein lacking PH domain (EhGEFΔPH), putative GEF domain
In words: tryptophan fluorescence quenching titration. The format is binding.

Assay [1] addresses GST-tagged EhRho1 (wild type) (Entamoeba histolytica).

As a reminder, the Kd is the free concentration of one partner at which half of the binding sites on the other are occupied at equilibrium, for simple one-to-one binding. The low end stands for higher affinity, the high end for lower affinity.

In turn, `Nc1nc2c(ncn2[C@@H]2O[C@H](COP(=O)(O)OP(=O)(O)OP(=O)(O)O)[C@@H](O)[C@H]2O)c(=O)[nH]1` [GTP] showed a Kd at EhGEF of 298 µM.

B1: HA-tagged EhGEF (full length wild type) (natural protein)
chain: MSEELKISVESLRPALFEGWGKKQGGSVKTWKKRWFVLKDNRLWYFASKTAEEAKGFIELPPGTETKDVSQNKKFMFSINSRNTKGSRVFYIVTENSVDHATFFDAVRKVLNKSSPSSVPAAQSTTPVNVPKAENQFTLQGNNSSTGLSTSTQPVTSTIPPMADAVNIPNSLQPKCDGRKNINKIKAKISWLQVEGENVVEFWKYWMDSTPQSDALEVGQSIQFMLVVSGNTEKLSWRVFGPQGALIQNMVDFFWNVGAPDEEIDHLNNLGCQINPSEIGSWIDMSVMNGMDGGWFFKGDLVCDVIRDTADKCEYAERLITWAKEHGLNYLCQMGRDMGATPPRQSEFRFKLDGVISSRMEKVHSAFTTFGFPPIPVNIVEILTNLPPVYTYFYLCVIVSSEGFVKISILVPAPKQDVVDAFLFAMSDVKDTHIALHKDITNTLGNTPLFVEYCYLNPGYGYEVYKEGADVLVHYNLGSESR
B1: the MANT-GDP dissociation from recombinant EhRho1 in presence of HA-EhGEF, compared with HsRhoA and EhRab1a in assay [1] worked out at 2 fold.
